System: HT-29 cells
Experiment: HT29 Cells 0FBS Assay In Vitro (TNF-α/SMAC mimetic/zVAD-FMK induced necroptosis, CellTiter-Glo cell viability)
Format: cell-based
Conditions: Homo sapiens; HT-29 cells, FBS free medium, TNF-α (10 ng/ml), SMAC mimetic (6 uM), zVAD-FMK (10 μM), 20 hours; geometric mean EC50; read-out: Cell activity (EC50) of Compounds 1-116
Outline: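 Viability was measured by ATP luminescence (CellTiter-Glo) after 20 h at 37° C of compound exposure in 10-point, 1:3 dilutions. Necroptosis in FBS-free HT-29 cultures was driven by a TNF-α (10 ng/ml), SMAC mimetic (6 μM) and zVAD-FMK (10 μM) cocktail. EC50 values are geometric means from duplicate curves.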

Row | Structure (SMILES) | EC50 [nM]
1 | Cc1nocc1-c1ncc(F)c(OC2CN(C(=O)N3N=CC[C@H]3c3cc(F)cc(F)c3)C2)n1 [compound 22, (S)-(5-(3,5-difluorophenyl)-4,5-dihydro-1H-pyrazol-1-yl)(3-((5-fluoro-2-(3-methylisoxazol-4-yl)pyrimidin-4-yl)oxy)azetidin-1-yl)methanone] | 0.1 to 100
2 | CC(C)CC(=O)Nc1cnn(C)c1-c1cc(OC2CN(C(=O)N3N=CC[C@H]3c3cc(F)cc(F)c3)C2)c(F)cn1 [compound 60, (S)—N-(5-(4-((1-(5-(3,5-difluorophenyl)-4,5-dihydro-1H-pyrazole-1-carbonyl)azetidin-3-yl)oxy)-5-fluoropyridin-2-yl)-1-methyl-1H-pyrazol-4-yl)-3-methylbutanamide] | 0.1 to 100
3 | NC(=O)c1cccn1-c1ncc(F)c(OC2CN(C(=O)N3N=CC[C@H]3c3cc(F)cc(F)c3)C2)n1 [compound 107, (S)-1-(4-((1-(5-(3,5-difluorophenyl)-4,5-dihydro-1H-pyrazole-1-carbonyl)azetidin-3-yl)oxy)-5-fluoropyrimidin-2-yl)-1H-pyrrole-2-carboxamide] | 0.1 to 100
4 | CC(=O)Nc1cnn(C)c1-c1cc(OC2CN(C(=O)N3N=CC[C@H]3c3cc(F)cc(F)c3)C2)c(F)cn1 [compound 57, (S)—N-(5-(4-((1-(5-(3,5-difluorophenyl)-4,5-dihydro-1H-pyrazole-1-carbonyl)azetidin-3-yl)oxy)-5-fluoropyridin-2-yl)-1-methyl-1H-pyrazol-4-yl)acetamide] | 0.1 to 100
5 | Cn1ncc(F)c1-c1cc(OC2CN(C(=O)N3N=CC[C@H]3c3cc(F)cc(F)c3)C2)c(F)cn1 [compound 81, (S)-(5-(3,5-difluorophenyl)-4,5-dihydro-1H-pyrazol-1-yl)(3-((5-fluoro-2-(4-fluoro-1-methyl-1H-pyrazol-5-yl)pyridin-4-yl)oxy)azetidin-1-yl)methanone] | 0.1 to 100
6 | Cn1ncc(CO)c1-c1cc(OC2CN(C(=O)N3N=CC[C@H]3c3cc(F)cc(F)c3)C2)c(F)cn1 [compound 78, (S)-(5-(3,5-difluorophenyl)-4,5-dihydro-1H-pyrazol-1-yl)(3-((5-fluoro-2-(4-(hydroxymethyl)-1-methyl-1H-pyrazol-5-yl)pyridin-4-yl)oxy)azetidin-1-yl)methanone] | 0.1 to 100

Same assay, conditions: Homo sapiens; HT-29 cells, FBS free medium, TNF-α (10 ng/ml), SMAC mimetic (6 uM), zVAD-FMK (10 μM), 20 hours; geometric mean EC50; read-out: Cell activity (EC50) of Compounds 117-281

Row | Structure (SMILES) | EC50 [nM]
7 | Cc1nn(-c2cc(OC3CN(C(=O)N4N=CC[C@H]4c4cc(F)cc(F)c4)C3)c(F)cn2)c(C)c1CC(=O)N1CCC1 [compound 222, (S)-1-(azetidin-1-yl)-2-(1-(4-((1-(5-(3,5-difluorophenyl)-4,5-dihydro-1H-pyrazole-1-carbonyl)azetidin-3-yl)oxy)-5-fluoropyridin-2-yl)-3,5-dimethyl-1H-pyrazol-4-yl)ethan-1-one] | 0.1 to 100
8 | Cc1onc(N)c1-c1cc(OC2CN(C(=O)N3N=CC[C@H]3c3cc(F)cc(F)c3)C2)c(F)cn1 [compound 228, (S)-(3-((2-(3-amino-5-methylisoxazol-4-yl)-5-fluoropyridin-4-yl)oxy)azetidin-1-yl)(5-(3,5-difluorophenyl)-4,5-dihydro-1H-pyrazol-1-yl)methanone] | 0.1 to 100
9 | Cn1ncc(C(N)=O)c1-c1ccc(F)c(OC2CN(C(=O)N3N=CC[C@H]3c3cc(F)cc(F)c3)C2)n1 [compound 149, (S)-5-(6-((1-(5-(3,5-difluorophenyl)-4,5-dihydro-1H-pyrazole-1-carbonyl)azetidin-3-yl)oxy)-5-fluoropyridin-2-yl)-1-methyl-1H-pyrazole-4-carboxamide] | 0.1 to 100
10 | Cc1cc(C(F)(F)F)nn1-c1cc(OC2CN(C(=O)N3N=CC[C@H]3c3cc(F)cc(F)c3)C2)c(F)cn1 [compound 170, (S)-(5-(3,5-difluorophenyl)-4,5-dihydro-1H-pyrazol-1-yl)(3-((5-fluoro-2-(5-methyl-3-(trifluoromethyl)-1H-pyrazol-1-yl)pyridin-4-yl)oxy)azetidin-1-yl)methanone] | 0.1 to 100
11 | CCc1nn(-c2cc(OC3CN(C(=O)N4N=CC[C@H]4c4cc(F)cc(F)c4)C3)c(F)cn2)c(C)c1C(N)=O [compound 281, (S)-1-(4-((1-(5-(3,5-difluorophenyl)-4,5-dihydro-1H-pyrazole-1-carbonyl)azetidin-3-yl)oxy)-5-fluoropyridin-2-yl)-3-ethyl-5-methyl-1H-pyrazole-4-carboxamide] | 0.1 to 100
12 | CNC(=O)c1c(C)nn(-c2cc(OC3CN(C(=O)N4N=CC[C@H]4c4cc(F)cc(F)c4)C3)c(F)cn2)c1C [compound 193, (S)-1-(4-((1-(5-(3,5-difluorophenyl)-4,5-dihydro-1H-pyrazole-1-carbonyl)azetidin-3-yl)oxy)-5-fluoropyridin-2-yl)-N,3,5-trimethyl-1H-pyrazole-4-carboxamide] | 0.1 to 100
13 | Cn1nccc1-c1cc(OC2CN(C(=O)N3N=CCC3c3cc(F)cc(F)c3)C2)c(F)cn1 (stereo not shown) [compound 250, (5-(3,5-difluorophenyl)-4,5-dihydro-1H-pyrazol-1-yl)(3-((5-fluoro-2-(1-methyl-1H-pyrazol-5-yl)pyridin-4-yl)oxy)azetidin-1-yl)methanone] | 0.1 to 100
14 | Cc1nn(-c2cc(OC3CN(C(=O)N4N=CC[C@H]4c4cc(F)cc(F)c4)C3)c(F)cn2)c(C)c1C(C)(C)C(N)=O [compound 280, (S)-2-(1-(4-((1-(5-(3,5-difluorophenyl)-4,5-dihydro-1H-pyrazole-1-carbonyl)azetidin-3-yl)oxy)-5-fluoropyridin-2-yl)-3,5-dimethyl-1H-pyrazol-4-yl)-2-methylpropanamide] | 0.1 to 100
15 | Cn1nc(C(N)=O)cc1-c1cc(OC2CN(C(=O)N3N=CC[C@H]3c3cc(F)cc(F)c3)C2)c(F)cn1 [compound 172, (S)-5-(4-((1-(5-(3,5-difluorophenyl)-4,5-dihydro-1H-pyrazole-1-carbonyl)azetidin-3-yl)oxy)-5-fluoropyridin-2-yl)-1-methyl-1H-pyrazole-3-carboxamide] | 0.1 to 100
16 | Cc1nsc(C)c1-c1cc(OC2CN(C(=O)N3N=CC[C@H]3c3cc(F)cc(F)c3)C2)c(F)cn1 [compound 127, (S)-(5-(3,5-difluorophenyl)-4,5-dihydro-1H-pyrazol-1-yl)(3-((2-(3,5-dimethylisothiazol-4-yl)-5-fluoropyridin-4-yl)oxy)azetidin-1-yl)methanone] | 0.1 to 100
17 | CCc1nn(-c2cc(OC3CN(C(=O)N4N=CC[C@H]4c4cc(F)cc(F)c4)C3)c(F)cn2)c(C)c1C#N [compound 124, (S)-1-(4-((1-(5-(3,5-difluorophenyl)-4,5-dihydro-1H-pyrazole-1-carbonyl)azetidin-3-yl)oxy)-5-fluoropyridin-2-yl)-3-ethyl-5-methyl-1H-pyrazole-4-carbonitrile] | 0.1 to 100
18 | CNC(=O)Nc1cnn(C)c1-c1cc(OC2CN(C(=O)N3N=CC[C@H]3c3cc(F)cc(F)c3)C2)c(F)cn1 [compound 142, (S)-1-(5-(4-((1-(5-(3,5-difluorophenyl)-4,5-dihydro-1H-pyrazole-1-carbonyl)azetidin-3-yl)oxy)-5-fluoropyridin-2-yl)-1-methyl-11H-pyrazol-4-yl)-3-methylurea] | 0.1 to 100
19 | Cc1n[nH]c(N)c1-c1cc(OC2CN(C(=O)N3N=CC[C@H]3c3cc(F)cc(F)c3)C2)c(F)cn1 [compound 205, (S)-(3-((2-(5-amino-3-methyl-1H-pyrazol-4-yl)-5-fluoropyridin-4-yl)oxy)azetidin-1-yl)(5-(3,5-difluorophenyl)-4,5-dihydro-1H-pyrazol-1-yl)methanone] | 0.1 to 100
